Laboratory results taken from patent US20240108740A1, “THERAPEUTIC COMPOSITIONS INCLUDING SPN10 AND USES THEREOF” (Stealth BioTherapeutics Inc., priority 2022, published 2024).
Residues, ends and D or L forms follow the SMILES beside them.

Key:
[1] = tested on: wild-type (WT) mice, middle cerebral artery occlusion; assay: Cerebral ischemia, no-reflow zone in the brain; type: in vivo, mouse; settings: i.p. at 0, 6, 24 and 48 hours after ischemia
Experimental: Cerebral ischemia initiates a cascade of cellular and molecular events that lead to brain damage. One such event is an anatomic zone of no-reflow. Cerebral ischemia will be induced by occlusion of the right middle cerebral artery for 30 minutes. Wild-type (WT) mice will be given either saline vehicle (Veh), peptide conjugate, aromatic-cationic peptide, SPN10, SPN10 and aromatic-cationic peptide (2-5 mg/kg for the peptide conjugate and equivalent molar doses of aromatic-cationic peptide and/or SPN10 based on concentration of the aromatic-cationic peptide or SPN10 administered in the peptide conjugate group) i.p. at 0, 6, 24 and 48 hours after ischemia. Mice will be sacrificed 3 days after ischemia, and the brains sliced transversely into 6-8 sections. Sections will be photographed under ultraviolet light to identify the region of no-reflow. The areas of no-reflow in each slice will be digitized using Image J (supplier Rasband WS, Image J, National Institutes of Health, http://rsb.info.nih.gov/ij/). The areas in each slice will be multiplied by the weight of the slice and the results will be summed in order to obtain the mass of the no-reflow areas.

[2] = tested on: Caco-2 cells; assay: Example 25: mitochondrial membrane potential after t-BHP (TMRM, CLSM); type: cell-based, human; settings: t-BHP 1 mM, 4 hours
Experimental: Caco-2 cells will be treated with t-BHP (1 mM) alone or in the presence of peptide conjugates (0.1 μM); aromatic-cationic peptides (an equivalent molar dose of aromatic-cationic peptide based on the concentration of the aromatic-cationic peptide administered in the peptide conjugate treatment group); SPN10(s) (an equivalent molar dose of SPN10 based on the concentration of SPN10 administered in the peptide conjugate treatment group); or SPN10(s) in combination with aromatic-cationic peptides (e.g., an equivalent molar dose of SPN10 based on the concentration of SPN10 administered in the peptide conjugate treatment group and an equivalent molar dose of aromatic-cationic peptide based on the concentration of aromatic-cationic peptide administered in the peptide conjugate treatment group) for 4 hours, and then incubated with TMRM and examined under CLSM.

[3] = tested on: mice; assay: Example 57: Ang II-induced hypertensive cardiomyopathy; type: in vivo, mouse
Experimental: Mouse experiments, drug delivery, echocardiography and blood pressure measurement. Six to ten mice will be included in each experimental group (Saline, Ang II, Ang II+peptide conjugate, Ang II+aromatic-cationic peptide, Ang II+SPN10, Ang II+SPN10+aromatic-cationic peptide, WT, Gαq, Gαq+peptide conjugate, Gαq+aromatic-cationic peptide, Gαq+SPN10, Gαq+SPN10+aromatic-cationic peptide). A pressor dose of Ang II (1.1 mg/kg/d) will be continuously administered for 4 weeks using subcutaneous Alzet 1004 osmotic minipumps, either alone or in the presence of with peptide conjugates (3 mg/kg/d), aromatic-cationic peptides (an equivalent molar dose of aromatic-cationic peptide based on concentration of the aromatic-cationic peptide administered in the peptide conjugate group), SPN10(s) (an equivalent molar dose of SPN10 based on concentration of SPN10 administered in the peptide conjugate group), or SPN10(s) in combination with aromatic-cationic peptides (e.g., an equivalent molar dose of SPN10 based on the concentration of SPN10 administered in the peptide conjugate treatment group and an equivalent molar dose of aromatic-cationic peptide based on the concentration of aromatic-cationic peptide administered in the peptide conjugate treatment group). Echocardiography will be performed at baseline and 4 weeks after pump implantation using a Siemens Acuson CV-70 equipped with a 13 MHz probe. […] MTI will be calculated as the ratio of the sum of isovolemic contraction and relaxation time to LV ejection time. […]
Blood pressure will be measured in a separate group of mice by telemetry using an intravascular catheter PA-C 10 (DSI, MN), in which measurement will be performed every three hours starting from 2 days before pump placement until 2 days after Ang pump placement. […]
Quantitative Pathology. […] Quantitative analysis of fibrosis will be performed by measuring the percentage of blue-staining fibrotic tissue relative to the total cross-sectional area of the ventricles. […]

SMILES: N=C(N)NCCC[C@H](NC(=O)[C@@H](N)Cc1c[nH]c2ccccc12)C(=O)N[C@@H](Cc1c[nH]c2ccccc12)C(=O)N[C@@H](CCCCN)C(N)=O [SPN10, H-L-Trp-L-Arg-L-Trp-L-Lys-NH2] (H-WRWK-NH2)
- anatomic zone of no-reflow in the brain [1]: prevent or reduce
- infarct volume [1]: significant reduction
- mitochondrial depolarization caused by t-BHP [2]: protect against mitochondrial depolarization
- Ang II-induced ventricular fibrosis (trichrome) ([3]; 4 weeks of Ang II): fully attenuated
- cardiac mitochondrial protein carbonyls ([3]; 4 weeks of Ang II): significantly reduce cardiac mitochondrial protein carbonyls
- Ang II-induced cardiomyopathy ([3]; Ang II 1.1 mg/kg/d, 4 weeks): ameliorate Ang II-induced cardiomyopathy
